Bridge positions count the residues as written; N and C are the ends. Square brackets hold non-standard residues; d marks the D form. Ends that are not written are not given here. Peptide text beside a SMILES is read from it. R8 = C=CCCCCCC[C@@](C)(N)C(=O)O; S5 = C=CCCC[C@](C)(N)C(=O)O
How the values were obtained:
circular dichroism = conditions: 5 mM sodium phosphate; pH 7.5; 20 °C; 7.5 uM
A. baumannii 1757 = test: MIC / checkerboard synergy assay (also with added LPS); type: cell-based, Acinetobacter baumannii; conditions: mean ± SD; for MIC (compound alone): LB broth, MIC = 90% of growth prevented, OD600 over 12 h; for MIC, + Rd-LPS (F583): LB medium with soluble deep rough LPS 15 µg/ml; for MIC, + Sm-LPS (055:B5): LB medium with soluble smooth LPS 15 µg/ml; for MIC, No supplement: LB medium without supplement (Table S4)
Method: (§1) Minimum inhibitory concentrations of the peptides and antibiotics were determined according to the protocol described by Wiegand et al.. Briefly, two-fold dilution series of cationic peptides in 50 µL volume of LB broth containing 2% DMSO were made in polypropylene 96-well microtiter plates (Ratiolab, L6018123, Dreieich, Germany). The optical density at 600 nm (OD600) of growing bacterial cultures was followed, and at mid-log-phase (OD600 ~0.4–0.5) cultures were diluted to OD600 0.02 and 50 µL was added to the wells, resulting in a total volume of 100 µl, an OD600 of ~0.01 and a DMSO concentration of 1%. An OD600 of ~0.01 accounted for approximately 3 × 10^8 colony forming units per mL (CFU/mL) for A. baumannii, 1 × 10^7 CFU/mL for E. coli and 5 × 10^7 CFU/mL for K. pneumoniae as determined by plate counting.
(§2) In a similar manner, two-fold dilution series of antibiotics were made in polystyrene microtiter plates (Costar, REF3779, Corning NY, United States) in 70 µL volume of LB broth. Then, 50 µL of the antibiotic series was transferred to the peptide containing polypropylene plate, resulting in a checkerboard titration of a peptide on the vertical axis and an antibiotic on the horizontal axis. To some checkerboard assays 15 µg/mL isolated smooth (sm) LPS (from E. coli O55:B5, Sigma-Aldrich, L2880), rough (Ra) LPS (from E. coli EH100, Sigma-Aldrich, L9641) or deep rough (Rd) LPS (from E. coli F583, Sigma-Aldrich, L6893) LPS was added to the LB broth. Mid-log phase cultures were diluted to OD600 0.1 and 10 µL culture was added to each well of the microtiter plate, resulting in a total volume of 110 µL and an OD600 of ~0.01 (~3 × 10^8 CFU/mL), and the OD600 was measured every 15 min for 12 h using the microplate reader. First, the MIC values of the antibiotics alone and the MIC values of the peptides alone were determined as described previously. Similarly, the MIC values of the antibiotics in combination with the different peptides and the MIC values of the peptides in combination with the antibiotics were determined (the fractional inhibitory concentrations (FIC)). […] An FICindex between 0.5 and 1 was considered to be an additive effect.

sheep red blood cells = conditions: sheep RBCs in DMEM, 1 h, 32 °C, OD405; for hemolysis at 50 µM: relative to 1% Triton-X100, negative control polymyxin B nonapeptide
Method: Defibrinated sheep blood was purchased from BioTrading (LOT 21118SG66, Mijdrecht, The Netherlands) and kept at 4 °C. As previously described by Phan et al., red blood cells (RBCs) were pelleted by centrifugation at 600× g for 7 min at 4 °C and gently resuspended in phenol red-free Dulbecco’s Modified Eagle Medium (DMEM, Gibco 21063-029, ThermoFisher Scientific, Waltham MA, United States). This was repeated five times until the supernatant appeared colorless. In the meantime, 10-fold dilution series of the peptides at 50 μM, 5 μM and 0.5 μM in 50 µl DMEM, 1% DMSO were made in polypropylene microtiter plates (Ratiolab, L6018123, Dreieich, Germany). Triton-X100 (1%, Sigma-Aldrich T-8787) and DMSO (10%, Sigma-Aldrich D-8418) were used as positive and negative controls, respectively. Polymyxin B (Sigma-Aldrich, p-1411) and polymyxin B nonapeptide (Sigma-Aldrich, p-2076) were used as reference lytic and non-lytic peptides. Then, 50 µL of RBCs was added to each well. The plate was sealed and incubated at 5% CO2 for one hour at 32 °C, after which the plate was centrifuged at 610× g for 5 min at room temperature. Next, 70 µL supernatant was removed and transferred to a flat-bottomed polystyrene microtiter plate (Costar, REF3779) and the OD405, as a measure of released hemoglobin, was determined using a microplate reader (Synergy H1 Multi-Mode Reader or Synergy HTX Multi-Mode Reader, BioTek). Percentage of hemolysis was calculated using the following equation: (2) % hemolysis=(absorbance test sample)-(absorbance diluent)/(absorbance positive control)-(absorbance diluent)

zebrafish larvae = test: Toxicity in zebrafish larvae (survival after caudal vein injection); conditions: survival of uninfected larvae vs vehicle (50% DMSO), five days
Method: Transparent Casper zebrafish (Danio rerio) larvae were infected and treated according to protocols described by Van der Sar et al. and Bernard et al. [43, 44]. In short, zebrafish larvae collected from a laboratory-breeding colony kept at 24 °C and a 12:12 h dark/light regime. Larvae were selected based on morphology according to hours post fertilization (hpf) and kept at 28 °C. All protocols followed the international guidelines on the protection of animals used for scientific purposes specified by the EU Directive 2010/63/EU, which allows zebrafish larvae to be used up to the moment of free-living (5–7 dpf). Larvae were dechorionated at 28 hpf and anaesthetized in 0.2% tricaine methanesulfonate (MS222, Fluka A-5040). Larvae were individually infected with 1 nL, containing approximately 100–150 CFU (1–1.5 CFU/mL), of Gram-negative bacteria via microinjection of the caudal vein as described previously [33]. One hour post infection, larvae were treated with cationic (stapled) peptides, antibiotics or a combination of the two via another microinjection of 1 nL in the caudal vein. To correct dilution of the treatment upon injection in the vein (1 nL in 250 nL zebrafish larvae volume), treatments were diluted in 0.1% phenol red (Sigma-Aldrich, p-0290) in phosphate buffered saline (PBS) to 250 times the concentration as tested in vitro. Zebrafish larvae were kept at 30 °C throughout the experiment and survival of the larvae, based on heartbeat, was determined every 24 h for 5 days.

[1] = normal pooled human serum, 100 µM peptide from 10 mM DMSO stock, 37 °C, samples at 0, 15, 60 min, TCA precipitation, LC-MS TIC vs carbamazepine internal standard, triplicate; Figure 2C
Method: The stability measurements were performed in normal pooled human serum (PHS). The respective peptide was diluted to a final concentration of 100 μM in the aforementioned human serum (from 10 mM peptide stocks in DMSO). Then, 100 μM Carbamazepine was used as an internal standard; 60 μL of aforementioned peptide/Carbamazepine solution in PHS was incubated for 1h at 37 °C/750 rpm and 20 μL samples were taken after 0 min, 15 min and 60 min. Next, 1.5 μL of TCA was added to the sample to precipitate serum proteins. The samples were subsequently incubated on ice for 10 min and then centrifuged (12,000× g, 10 min). Then, 5 μL of supernatant was diluted in 20 μL of H2O/MeCN + 0.1% TFA. The sample was subsequently analyzed by LCMS on an Nucleodur C4-column (Macherey Nagel CC125/4 Nucleodur C4 Gravity, 5 µm) using a linear aqueous MeCN gradient containing FA (0.1%, v/v) and TFA (0.01%, v/v) as ion pair reagent (5–95%, 8 min). Peptides were quantified using the total ion count (TIC) of selected molecular ions. Remaining peptide quantities were calculated by normalizing the peptide peak areas using the internal standard peak areas and subsequently comparing the obtained value with the 0 min measurement. All measurements were performed in triplicate.

A. baumannii 1681 = test: MIC / checkerboard synergy assay; type: cell-based, Acinetobacter baumannii; conditions: compound alone; LB broth, MIC = 90% of growth prevented, OD600 over 12 h; mean ± SD
Method: as §1, §2

A. baumannii 2196 = test: MIC / checkerboard synergy assay; type: cell-based, Acinetobacter baumannii; conditions: compound alone; LB broth, MIC = 90% of growth prevented, OD600 over 12 h; mean ± SD
Method: as §1, §2

K. pneumoniae 613 = test: MIC / checkerboard synergy assay; type: cell-based, Klebsiella pneumoniae; conditions: compound alone; LB broth, MIC = 90% of growth prevented, OD600 over 12 h; mean ± SD
Method: as §1, §2

K. pneumoniae 821 = test: MIC / checkerboard synergy assay; type: cell-based, Klebsiella pneumoniae; conditions: compound alone; LB broth, MIC = 90% of growth prevented, OD600 over 12 h; mean ± SD
Method: as §1, §2

K. pneumoniae 94 = test: MIC / checkerboard synergy assay; type: cell-based, Klebsiella pneumoniae; conditions: compound alone; LB broth, MIC = 90% of growth prevented, OD600 over 12 h; mean ± SD
Method: as §1, §2

Molecule	helicity (circular dichroism) [%]	MIC (compound alone) (A. baumannii 1757) [µM]	hemolysis at 50 µM (sheep red blood cells)	Log2FoldChange compared to vehicle injected (zebrafish larvae)	stability in human serum (in words) [1]	MIC, + Rd-LPS (F583) (A. baumannii 1757) [µM]	MIC, + Sm-LPS (055:B5) (A. baumannii 1757) [µM]	MIC, No supplement (A. baumannii 1757) [µM]	MIC (compound alone) (A. baumannii 1681)	MIC (compound alone) (A. baumannii 2196)	MIC (compound alone) (K. pneumoniae 613)	MIC (compound alone) (K. pneumoniae 821)	MIC (compound alone) (K. pneumoniae 94)	hemolysis in the concentration range tested (in words) (sheep red blood cells; 0.5, 5 and 50 µM)	MIC, + Ra-LPS (EH100) (A. baumannii 1757; LB medium with soluble rough LPS 15 µg/ml) [µM]
CC(C)C[C@H](NC(=O)[C@H](Cc1c[nH]c2ccccc12)NC(=O)[C@H](CCCNC(=N)N)NC(=O)[C@H](CC(C)C)NC(=O)[C@]1(C)CCCC=CCCC[C@](C)(NC(=O)[C@H](CCCNC(=N)N)NC(=O)[C@@H](N)CCCNC(=N)N)C(=O)N[C@@H](Cc2ccccc2)C(=O)N[C@@H](CCCNC(=N)N)C(=O)N[C@@H](CCCNC(=N)N)C(=O)N1)C(N)=O [Peptide L6S1] (H-RR[S5]FRR[S5]LRWL-NH2; staple 3-7)	28	1.80 ± 2.68	significantly more hemolytic to the RBCs than the negative control	0.04											
CC(C)C[C@H](NC(=O)[C@H](CCCNC(=N)N)NC(=O)[C@@H](N)CCCNC(=N)N)C(=O)N[C@@H](Cc1ccccc1)C(=O)N[C@@H](CCCNC(=N)N)C(=O)N[C@@H](CCCNC(=N)N)C(=O)N[C@@]1(C)CCCC=CCCC[C@@](C)(C(N)=O)NC(=O)[C@H](Cc2c[nH]c3ccccc23)NC(=O)[C@H](CCCNC(=N)N)NC(=O)[C@H](CC(C)C)NC1=O [Peptide L6S2] (H-RRLFRR[S5]LRW[S5]-NH2; staple 7-11)	19	0.93 ± 0.69	significantly more hemolytic to the RBCs than the negative control	-1.21	highest stabilities										
CC[C@H](C)[C@@H]1NC(=O)[C@H](CCCNC(=N)N)NC(=O)[C@H](CCCNC(=N)N)NC(=O)[C@](C)(NC(=O)[C@H](CC(C)C)NC(=O)[C@H](CCCNC(=N)N)NC(=O)[C@@H](N)CCCNC(=N)N)CCCCCCC=CCCC[C@@](C)(C(N)=O)NC(=O)[C@H](Cc2c[nH]c3ccccc23)NC(=O)[C@H](CCCNC(=N)N)NC(=O)[C@H](CC(C)C)NC1=O [Peptide L6S3] (H-RRL[R8]RRILRW[S5]-NH2; staple 4-11)	23	1.47 ± 0.48	did not cause hemolysis	-0.40											
CC(C)C[C@H](NC(=O)[C@H](Cc1c[nH]c2ccccc12)NC(=O)[C@H](CCCCN)NC(=O)[C@H](CCCCN)NC(=O)[C@]1(C)CCCC=CCCC[C@](C)(NC(=O)[C@H](CCCNC(=N)N)NC(=O)[C@@H](N)CCCCN)C(=O)N[C@@H](C(C)C)C(=O)N[C@@H](CCC(N)=O)C(=O)N[C@@H](CCCNC(=N)N)C(=O)N1)C(=O)N[C@@H](CCCNC(=N)N)C(N)=O [Peptide L8S1] (H-KR[S5]VQR[S5]KKWLR-NH2; staple 3-7)	49	12.76 ± 8.91	did not cause hemolysis	-0.45											
CC[C@H](C)[C@H](NC(=O)[C@H](CCCNC(=N)N)NC(=O)[C@@H](N)CCCCN)C(=O)N[C@H](C(=O)N[C@@H](CCC(N)=O)C(=O)N[C@@H](CCCNC(=N)N)C(=O)N[C@@]1(C)CCCC=CCCC[C@@](C)(C(=O)N[C@@H](CCCNC(=N)N)C(N)=O)NC(=O)[C@H](Cc2c[nH]c3ccccc23)NC(=O)[C@H](CCCCN)NC(=O)[C@H](CCCCN)NC1=O)C(C)C [Peptide L8S2] (H-KRIVQR[S5]KKW[S5]R-NH2; staple 7-11)	25	8.69 ± 4.29	did not cause hemolysis	0.11											
CC[C@H](C)[C@@H]1NC(=O)[C@H](CCCNC(=N)N)NC(=O)[C@H](CCC(N)=O)NC(=O)[C@](C)(NC(=O)[C@@H](NC(=O)[C@H](CCCNC(=N)N)NC(=O)[C@@H](N)CCCCN)[C@@H](C)CC)CCCCCCC=CCCC[C@@](C)(C(=O)N[C@@H](CCCNC(=N)N)C(N)=O)NC(=O)[C@H](Cc2c[nH]c3ccccc23)NC(=O)[C@H](CCCCN)NC(=O)[C@H](CCCCN)NC1=O [Peptide L8S3] (H-KRI[R8]QRIKKW[S5]R-NH2; staple 4-11)	25	0.57 ± 0.23	significantly more hemolytic to the RBCs than the negative control	-0.08	highest stabilities										
KRIVQRIKKWLR-NH2 [Peptide L8]	16	2.53 ± 1.02		-0.63		10.83 ± 8.12	0.53 ± 0.59	8.78 ± 11.15	5,85±0,47 µM	8,54±5,31 µM	23,74±29,65 µM	43,37±28,38 µM	165,45±1,91 µM	did not cause hemolysis	
RRLFRRILRWL-NH2 [Peptide L6]	15	1.1 ± 1.20	up to 50%	-0.04		0.34 ± 0.40	9.85 ± 16.34	1.2 ± 0.43	0,66±0,13 µM	0,91±0,59 µM	0,65±0,15 µM	2,44±2,17 µM	0,63±0,29 µM		2.50 ± 3.83

Reference: article PMC8868297, “Stapling of Peptides Potentiates the Antibiotic Treatment of Acinetobacter baumannii In Vivo” (Antibiotics, 2022)
